Among the test systems are A498; CAKI-1; CCRF-CEM; DU-145; HCT-116; HCT-15; IGROV-1; K562; M14; MDA-MB-231; MDA-MB-435; MDA-N; NCI-H226; OVCAR-5; SK-OV-3; SNB-75; T47D; TK-10; HCC 2998.
Test in all cases: NCI tumour cell line growth inhibition, 48 h

“And” between values parts separate entries of the source, which are not always exact repeats. Equal values may be shown once.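 96-well plates; 48 h exposure; 5 concentrations. Endpoints by linear interpolation between flanking doses. Not reached: highest tested concentration assigned. Here, GI50 denotes the concentration required for 50% inhibition of growth.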 The source made the active and inactive calls. Cut-off read from the data, not from the text of the source: active = GI50 up to about 1.1 µM and inactive = higher.

For the compound `CN(N=O)c1ccc(/C=C/c2ccnc3ccccc23)cc1`, the GI50 was 60.4 µM (inactive) in the experiment with A498; 42.3 µM (inactive) in the experiment with CAKI-1; 47.3 µM (inactive) in the experiment on CCRF-CEM; 61.5 µM (inactive) with DU-145; 34 µM (inactive) in the experiment with HCT-116; 54.2 µM in the experiment on HCT-15. For the same compound, the GI50 in the experiment on IGROV-1 is 49 µM (inactive); with K562 it was 78.9 µM (inactive); in the experiment with M14, 93.1 µM (inactive); in the experiment on MDA-MB-231, 88.7 µM (inactive); in the experiment with MDA-MB-435, > 100 µM (inactive); with MDA-N it was 75.3 µM (inactive). The GI50 in the experiment on NCI-H226 was 47.8 µM (inactive); in the experiment on OVCAR-5, > 100 µM (inactive); with SK-OV-3, > 100 µM (inactive); in the experiment with SNB-75, 25.1 µM (inactive); with T47D, 50.4 µM (inactive); with TK-10 it was 29.4 µM (inactive).

`CC[C@H](C)[C@H](NC(=O)[C@H](Cc1ccc(O)cc1)NCC(F)(F)F)C(=O)OC(C)(C)C`: the GI50 in the experiment on A498 is 7.31 µM (inactive); in the experiment on CAKI-1, 7.01 µM (inactive); in the experiment on HCC 2998, 7.29 µM (inactive); with HCT-116, 7.18 µM (inactive); with HCT-15, 10.5 µM; in the experiment on IGROV-1 it was 7.5 µM (inactive). The GI50 was 8.61 µM (inactive) in the experiment on K562; 7.03 µM (inactive) with M14; 7.28 µM (inactive) in the experiment with MDA-MB-231; 7 µM (inactive) in the experiment on MDA-MB-435; 8.32 µM (inactive) in the experiment on MDA-N; 9.06 µM (inactive) in the experiment on NCI-H226. For the same compound, the GI50 in the experiment on OVCAR-5 is 8.63 µM (inactive); with SK-OV-3 it was 8.11 µM (inactive); in the experiment with SNB-75 it was 7.89 µM (inactive); with T47D it was 4.51 µM (inactive); with TK-10, 8.09 µM (inactive).

Consider `COC(=O)N1C2C(C[C@@]1(C)C(=O)OC)c1ccccc1N2S(=O)(=O)c1ccccc1` (some centres undefined), for which the GI50 in the experiment with CAKI-1, with CCRF-CEM, in the experiment on DU-145, with HCC 2998, in the experiment on HCT-116 and in the experiment with IGROV-1 was > 100 µM (inactive) throughout. In addition, the GI50 in the experiment on K562, in the experiment with M14, with MDA-MB-231, in the experiment with MDA-MB-435, in the experiment with MDA-N and with NCI-H226 was > 100 µM (inactive) each time. For the same compound, the GI50 with OVCAR-5, in the experiment on SK-OV-3, in the experiment with SNB-75, with T47D and in the experiment on TK-10 was > 100 µM (inactive) in each case.

With `O=c1c(=O)c2c(Br)sc(Br)c2c1=O`, the GI50 with A498 was > 100 µM (inactive); in the experiment with CAKI-1, 19.1 µM (inactive); in the experiment with DU-145, > 100 µM (inactive); in the experiment on HCC 2998, 57.3 µM (inactive); in the experiment with HCT-116 it was 20.1 µM (inactive); with HCT-15, 19.4 µM. For the same compound, the GI50 with IGROV-1 is 18.2 µM (inactive); in the experiment with K562, 21.4 µM (inactive); in the experiment with M14, 19.8 µM (inactive); in the experiment with MDA-MB-435, 19.1 µM (inactive); with MDA-N it was 18.1 µM (inactive); in the experiment with NCI-H226, > 100 µM (inactive). The GI50 was 20.3 µM (inactive) in the experiment with OVCAR-5; 43.8 µM (inactive) in the experiment on SK-OV-3; 28.9 µM (inactive) with SNB-75; 20 µM (inactive) in the experiment with T47D; 22.1 µM (inactive) in the experiment on TK-10.

On to `COC(=O)C1OC(O[C@H]2CC[C@]3(C)[C@H]4CC=C5[C@@H]6CC(C)(C)CC[C@]6(C(=O)OC6OCC(O)C(O)C6OC6OC(C)C(OC7OCC(O)C(O)C7O)C(O)C6O)CC[C@@]5(C)[C@]4(C)CC[C@H]3C2(C)C)C(O)C(O)C1O` (some centres undefined), for which the GI50 is 12.9 µM (inactive) and 15.5 µM (inactive) in the experiment on CAKI-1; 22.6 µM (inactive) and 22.4 µM (inactive) in the experiment on CCRF-CEM; 18 µM (inactive) and 22.1 µM (inactive) in the experiment on DU-145; 11.9 µM (inactive) and 14.2 µM (inactive) in the experiment on HCC 2998; 17.1 µM (inactive) and 18.4 µM (inactive) in the experiment on HCT-116; 26.9 µM and 28.8 µM in the experiment on HCT-15. Also, the GI50 was 24.8 µM (inactive) and 45.8 µM (inactive) in the experiment on IGROV-1; 25.8 µM (inactive) and 26 µM (inactive) in the experiment on K562; 15.3 µM (inactive) and 18.2 µM (inactive) in the experiment on M14; 19.1 µM (inactive) and 17.9 µM (inactive) in the experiment on MDA-MB-435; 18.5 µM (inactive) and 15.9 µM (inactive) with MDA-N; 19.7 µM (inactive) and 20.8 µM (inactive) with NCI-H226. In addition, the GI50 is 16.5 µM (inactive) and 20.7 µM (inactive) with OVCAR-5; 21.2 µM (inactive) and 21.3 µM (inactive) in the experiment on SK-OV-3; 16.5 µM (inactive) and 16.1 µM (inactive) in the experiment on SNB-75; 28.2 µM (inactive) and 18.2 µM (inactive) in the experiment on T47D.

Regarding `O=C(COc1ccc(Cl)cc1Cl)N/N=C/C=C/c1ccc([N+](=O)[O-])o1`, the GI50 was 11.5 µM (inactive) in the experiment with A498; > 100 µM (inactive) with CAKI-1; 3.13 µM (inactive) in the experiment on CCRF-CEM; 1.87 µM (inactive) with HCT-116; 3.37 µM in the experiment with HCT-15; 1.42 µM (inactive) with IGROV-1. Also, the GI50 in the experiment with K562 is 4.43 µM (inactive); in the experiment with M14, 2.72 µM (inactive); with MDA-MB-231, 6.95 µM (inactive); in the experiment with MDA-MB-435, 2.63 µM (inactive); with MDA-N, 3.43 µM (inactive); in the experiment on NCI-H226, 10.5 µM (inactive). The GI50 in the experiment with OVCAR-5 was > 100 µM (inactive); in the experiment on SK-OV-3, 14.6 µM (inactive); with SNB-75, 14.3 µM (inactive); in the experiment with T47D, > 100 µM (inactive); with TK-10, 7.67 µM (inactive).

For `COc1ccc2oc(=N)c(C(N)=S)cc2c1`, the GI50 was 37.8 µM (inactive) in the experiment on CAKI-1; 20.5 µM (inactive) in the experiment on CCRF-CEM; 27.2 µM (inactive) in the experiment on DU-145; 17.3 µM (inactive) with HCC 2998; 17.4 µM (inactive) with HCT-116; 17.5 µM in the experiment on HCT-15. Moreover, the GI50 was 29.6 µM (inactive) in the experiment with IGROV-1; 28.4 µM (inactive) in the experiment with K562; 32.4 µM (inactive) in the experiment on M14; 18 µM (inactive) in the experiment with MDA-MB-231; 25.1 µM (inactive) in the experiment with MDA-MB-435; 21.1 µM (inactive) in the experiment on MDA-N. Moreover, the GI50 in the experiment with NCI-H226 is 19.9 µM (inactive); in the experiment with OVCAR-5, 29.9 µM (inactive); with SK-OV-3, 33.2 µM (inactive); in the experiment on SNB-75, 24.9 µM (inactive); with T47D it was 23.7 µM (inactive); in the experiment with TK-10, 26.1 µM (inactive).

For `O=C(O)c1ccccc1/C=N/N=C1NCCCCN1`, the GI50 in the experiment on A498 was > 100 µM (inactive); in the experiment on CCRF-CEM, > 100 µM (inactive); in the experiment on HCC 2998, > 100 µM (inactive); with HCT-116 it was > 100 µM (inactive); with HCT-15 it was above 100 µM; with IGROV-1, > 100 µM (inactive). The GI50 in the experiment with K562, with M14, with MDA-MB-231, in the experiment on MDA-MB-435, with MDA-N and in the experiment on NCI-H226 was > 100 µM (inactive) throughout. Besides, the GI50 in the experiment on OVCAR-5, in the experiment with SK-OV-3, with SNB-75, with T47D and in the experiment on TK-10 was > 100 µM (inactive) in each case.

On to `NC(Cc1ccc(O)cn1)C(=O)NC(C(=O)O)c1ccccc1` (centres undefined), for which the GI50 in the experiment on A498, in the experiment on CAKI-1, in the experiment on CCRF-CEM, in the experiment on DU-145, in the experiment on HCC 2998 and with HCT-116 was > 100 µM (inactive) throughout. The GI50 with HCT-15 was above 100 µM; with IGROV-1, > 100 µM (inactive); in the experiment on K562, > 100 µM (inactive); in the experiment with MDA-MB-231, > 100 µM (inactive); with MDA-MB-435, > 100 µM (inactive); with MDA-N it was > 100 µM (inactive). For the same compound, the GI50 in the experiment with NCI-H226, with OVCAR-5, with SNB-75 and with TK-10 was > 100 µM (inactive) each time.

In the case of `COC(=O)C1Cc2c([nH]c3ccccc23)-c2[nH]c3ccccc3c2CC(NC(C)=O)C(=O)N2CCCC2C(=O)N1` (centres undefined), the GI50 was > 100 µM (inactive) with CAKI-1; 93.5 µM (inactive) with CCRF-CEM; > 100 µM (inactive) with DU-145; > 100 µM (inactive) with HCC 2998; > 100 µM (inactive) in the experiment with HCT-116; above 100 µM in the experiment with HCT-15. Also, the GI50 in the experiment with IGROV-1 was 24.8 µM (inactive); in the experiment on K562, > 100 µM (inactive); in the experiment on MDA-MB-231, > 100 µM (inactive); in the experiment with MDA-MB-435, > 100 µM (inactive); with MDA-N, > 100 µM (inactive); with NCI-H226, 0.176 µM (active). Moreover, the GI50 with OVCAR-5, in the experiment on SK-OV-3, in the experiment with SNB-75, in the experiment on T47D and with TK-10 was > 100 µM (inactive) each time.

For the compound `O=C(CC(=O)Nc1ccccc1)N/N=C/c1cc(/N=N/c2ccc(Br)cc2)ccc1O`, the GI50 in the experiment on CAKI-1 was 3.61 µM (inactive); in the experiment on CCRF-CEM, 1.54 µM (inactive); in the experiment with DU-145 it was 5.16 µM (inactive); in the experiment with HCC 2998, 3.25 µM (inactive); in the experiment with HCT-15, 3.33 µM; with IGROV-1 it was 4.21 µM (inactive). Further, the GI50 in the experiment on K562 was 2.96 µM (inactive); in the experiment on M14, 6.37 µM (inactive); with MDA-MB-231, 3.26 µM (inactive); with MDA-N, 3.72 µM (inactive); in the experiment with SK-OV-3, 8.87 µM (inactive); with SNB-75, > 10 µM (inactive). Besides, the GI50 in the experiment with T47D is 4.38 µM (inactive); with TK-10 it was 4.2 µM (inactive).

Source of the values: ChEMBL document CHEMBL1201862, “PubChem BioAssay data set” (2004).
